CNCC[C@@H](c1ccccc1)c1c[nH]c2cccc(OC)c12 [[(S)-3-(4-Methoxy-1H-indol-3-yl)-3-phenyl-propyl]-methyl-amine]
melting point: 134 to 137 °C

— US7598399B2, “Methods for synthesis of 3-amino-1-arylpropyl indoles” (Roche Palo Alto LLC, priority 2005, dated 2009)
